Source: PubChem BioAssay (NCI)
Several values for one entry are separate records, joined by “and”; a condition that tells them apart may be missing. Identical values can stand only once.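 Results reflect a 48-hour exposure of cells in 96-well plates to compound at five concentrations. Here, GI50 denotes the concentration required for 50% inhibition of growth. At the TGI there is no net growth.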

Tests used:
Experiment in all cases: inhibition of tumour cell growth, NCI panel, 48 h
[1] = test system: KM12 colon
[2] = test system: UACC-62 melanoma
[3] = test system: NCI-H226 lung
[4] = test system: NCI-H460 lung
[5] = test system: SK-MEL-5 melanoma
[6] = test system: OVCAR-8 ovarian
[7] = test system: OVCAR-5 ovarian
[8] = test system: MOLT-4 leukemia
[9] = test system: A498 renal
[10] = test system: MDA-MB-231 breast
[11] = test system: RXF 393 renal
[12] = test system: HOP-92 NSCLC
[13] = test system: SNB-19 CNS
[14] = test system: SK-MEL-2 melanoma
[15] = test system: MDA-MB-435
[16] = test system: K-562 leukemia
[17] = test system: HCT-15 colon
[18] = test system: BT-549 breast
[19] = test system: HCC-2998 colon
[20] = test system: NCI/ADR-RES ovarian
[21] = test system: UO-31 renal
[22] = test system: HT29 colon
[23] = test system: T-47D breast
[24] = test system: OVCAR-4 ovarian
[25] = test system: SF-268 CNS
[26] = test system: SW-620 colon
[27] = test system: SF-295 CNS
[28] = test system: CCRF-CEM leukemia
[29] = test system: PC-3 prostate
[30] = test system: DU-145 prostate
[31] = test system: COLO 205 colon
[32] = test system: EKVX NSCLC
[33] = test system: LOX IMVI melanoma
[34] = test system: OVCAR-3 ovarian
[35] = test system: M14 melanoma
[36] = test system: SNB-75 CNS
[37] = test system: IGROV1 ovarian
[38] = test system: SF-539 CNS
[39] = test system: NCI-H23 lung
[40] = test system: MCF7 breast
[41] = test system: HCT-116 colon
[42] = test system: U251 CNS
[43] = test system: SR leukemia
[44] = test system: NCI-H522 lung
[45] = test system: RPMI-8226 leukemia
[46] = test system: SN12C renal
[47] = test system: HOP-62 NSCLC
[48] = test system: HS 578T breast
[49] = test system: 786-0 renal
[50] = test system: SK-MEL-28 melanoma
[51] = test system: SK-OV-3 ovarian
[52] = test system: A549 NSCLC
[53] = test system: ACHN renal
[54] = test system: CAKI-1 renal
[55] = test system: MALME-3M melanoma
[56] = test system: UACC-257 melanoma
[57] = test system: TK-10 renal
[58] = test system: HL-60(TB) leukemia
[59] = test system: MDA-N

With CCN1CCN(Cc2ccc(-c3cc4c(N[C@H](C)c5ccccc5)ncnc4[nH]3)cc2)CC1 the GI50 [1] was 3.84 µM and 3.5 µM, the TGI [1] was 14.4 µM and > 10 µM and the GI50 [2] was 2.09 µM and 3.75 µM. For the same compound, the TGI [2] was 5.36 µM and > 10 µM, the GI50 [3] was 3.03 µM and 7.73 µM and the TGI [3] was 24.7 µM and > 10 µM. The GI50 [4] was 5.55 µM and 6.86 µM, the TGI [4] was 23.3 µM and > 10 µM and the GI50 [5] was 1.76 µM and 1.72 µM. For the same compound, the TGI [5] was 3.68 µM and 3.88 µM, the GI50 [6] was 3.5 µM and 8.1 µM and the TGI [6] was 33 µM and > 10 µM. For the same compound, the GI50 [7] was 0.708 µM and 1.61 µM, the TGI [7] was 23.9 µM and > 10 µM and the GI50 [8] was 2.62 µM and 2.39 µM. The TGI [8] was 9.35 µM and > 10 µM, the GI50 [9] was 0.947 µM and 0.35 µM and the TGI [9] was 2.82 µM and 2.08 µM. The GI50 [10] was 2.08 µM and 2.88 µM, the TGI [10] was 8.3 µM and > 10 µM and the GI50 [11] was 1.17 µM and 0.665 µM. For the same compound, the TGI [11] was 4.27 µM and 3.82 µM, the GI50 [12] was 0.167 µM and 0.523 µM and the TGI [12] was 4.21 µM and > 10 µM. For the same compound, the GI50 [13] was 6.11 µM and 4.04 µM, the TGI [13] was 29.7 µM and > 10 µM and the GI50 [14] was 4.86 µM and > 10 µM. For the same compound, the TGI [14] was 17.4 µM and > 10 µM, the GI50 [15] was 1.95 µM and 2.74 µM and the TGI [15] was 4.63 µM and 8.4 µM. The GI50 [16] was 0.49 µM and 0.626 µM, the TGI [16] was 12.4 µM and > 10 µM and the GI50 [17] was 2.56 µM and 2.39 µM. For the same compound, the TGI [17] was 17.9 µM and > 10 µM, the GI50 [18] was 6.3 µM and > 10 µM and the TGI [18] was 22.3 µM and > 10 µM. The GI50 [19] was 7.63 µM and > 10 µM, the TGI [19] was 22.3 µM and > 10 µM and the GI50 [20] was 4.69 µM and 4.78 µM. The TGI [20] was 29.9 µM and > 10 µM, the GI50 [21] was 0.37 µM and 0.542 µM and the TGI [21] was 8.95 µM and > 10 µM. For the same compound, the GI50 [22] was 1.99 µM and 2.41 µM, the TGI [22] was 8.77 µM and > 10 µM and the GI50 [23] was 1.36 µM and 0.765 µM. For the same compound, the TGI [23] was 19.2 µM and > 10 µM, the GI50 [24] was 4.71 µM and > 10 µM and the TGI [24] was 23 µM and > 10 µM. For the same compound, the GI50 [25] was 2.43 µM and 4.11 µM, the TGI [25] was 18.7 µM and > 10 µM and the GI50 [26] was 3.45 µM and 5.46 µM. The TGI [26] was 19.9 µM and > 10 µM, the GI50 [27] was 1.62 µM and 3.09 µM and the TGI [27] was 4.2 µM and > 10 µM. For the same compound, the GI50 [28] was 2.41 µM and 3.23 µM, the TGI [28] was 6.43 µM and > 10 µM and the GI50 [29] was 2.24 µM and 5.07 µM. The TGI [29] was 18.7 µM and > 10 µM, the GI50 [30] was 1.78 µM and 2.38 µM and the TGI [30] was 19.9 µM and > 10 µM. For the same compound, the GI50 [31] was 1.9 µM and 1.73 µM, the TGI [31] was 3.6 µM and 3.52 µM and the GI50 [32] was 0.308 µM. The TGI [32] was over 10 µM, the GI50 [33] was 1.51 µM and 1.24 µM and the TGI [33] was 3.06 µM and 2.78 µM. The GI50 [34] was 3.78 µM and 2.05 µM, the TGI [34] was 20.9 µM and > 10 µM and the GI50 [35] was 1.84 µM and 1.92 µM. For the same compound, the TGI [35] was 3.77 µM and 4.4 µM, the GI50 [36] was 1.48 µM and 1.88 µM and the TGI [36] was 9.56 µM and 8.12 µM. The GI50 [37] was 0.112 µM and 0.176 µM, the TGI [37] was 1.51 µM and 7.17 µM and the GI50 [38] was 2.07 µM and 1.9 µM. For the same compound, the TGI [38] was 5.67 µM and 5.14 µM, the GI50 [39] was 7.39 µM and > 10 µM and the TGI [39] was 33.3 µM and > 10 µM. For the same compound, the GI50 [40] was 2.78 µM and 2.68 µM, the TGI [40] was 15.9 µM and > 10 µM and the GI50 [41] was 2.8 µM and 2.87 µM. The TGI [41] was 14.4 µM and > 10 µM, the GI50 [42] was 1.84 µM and 2.85 µM and the TGI [42] was 5.06 µM and > 10 µM. For the same compound, the GI50 [43] was 2.34 µM and 2.05 µM, the TGI [43] was 6.17 µM and 4.92 µM and the GI50 [44] was 0.154 µM and 0.462 µM. For the same compound, the TGI [44] was 2.23 µM and > 10 µM, the GI50 [45] was 3.54 µM and 2.13 µM and the TGI [45] was 13.4 µM and 6.94 µM. For the same compound, the GI50 [46] was 0.278 µM and 2.12 µM, the TGI [46] was 15.5 µM and > 10 µM and the GI50 [47] was 3.52 µM and 3.53 µM. For the same compound, the TGI [47] was 18.3 µM and > 10 µM, the GI50 [48] was 2.1 µM and 0.763 µM and the TGI [48] was 9.79 µM and 5.24 µM. The GI50 [49] was 2.02 µM and 1.91 µM, the TGI [49] was 8.93 µM and 7.74 µM and the GI50 [50] was 1.96 µM and 1.98 µM. The TGI [50] was 3.93 µM and 4.26 µM, the GI50 [51] was 0.299 µM and the TGI [51] was 11.1 µM. For the same compound, the GI50 [52] was 1.71 µM and 3.08 µM, the TGI [52] was 13.1 µM and > 10 µM and the GI50 [53] was 0.0625 µM and 0.162 µM. For the same compound, the TGI [53] was 12.5 µM and > 10 µM, the GI50 [54] was 0.252 µM and 1.27 µM and the TGI [54] was 3.17 µM and > 10 µM. For the same compound, the GI50 [55] was 1.92 µM and 1.78 µM, the TGI [55] was 4.14 µM and 4.02 µM and the GI50 [56] was 1.76 µM and 1.83 µM. The TGI [56] was 3.38 µM and 3.41 µM, the GI50 [57] was 0.111 µM and 0.183 µM and the TGI [57] was 4.43 µM and > 10 µM. The GI50 [58] was 2.83 µM and 4 µM and the TGI [58] was 7.91 µM and > 10 µM.
With CN(C)CCOc1ccc2[nH]c(C(=O)N3CC(CCl)c4c3cc(N)c3ccccc43)cc2c1 (configuration not stated) the TGI [1] was under 0.01 µM, the TGI [3] was under 0.01 µM and the TGI [5] was under 0.01 µM. It also gave a TGI [7] of over 100 µM, a TGI [8] of under 0.01 µM and a TGI [10] of over 100 µM. The TGI [12] was under 0.01 µM, the TGI [13] was 0.202 µM and the TGI [14] was under 0.01 µM. The TGI [15] was under 0.01 µM, the TGI [16] was over 4.64 µM and the TGI [17] was over 46.9 µM. It also gave a TGI [18] of 1.64 µM, a TGI [19] of under 0.01 µM and a TGI [21] of under 0.01 µM. It also gave a TGI [22] of 1.71 µM, a TGI [24] of 1.18 µM and a TGI [25] of over 4.64 µM. The TGI [28] was over 100 µM, the TGI [29] was 3.66 µM and the TGI [30] was 0.0525 µM. For the same compound, the TGI [34] was under 0.01 µM, the TGI [35] was over 100 µM and the TGI [59] was under 0.01 µM. For the same compound, the TGI [36] was under 0.215 µM, the TGI [39] was under 0.01 µM and the TGI [41] was 3.63 µM. It also gave a TGI [42] of 1.1 µM, a TGI [45] of under 0.01 µM and a TGI [49] of under 0.01 µM. For the same compound, the TGI [50] was under 0.01 µM, the TGI [51] was under 0.01 µM and the TGI [52] was 13.2 µM. It also gave a TGI [53] of under 0.01 µM, a TGI [55] of under 0.01 µM and a TGI [57] of over 4.64 µM. It also gave a TGI [58] of over 100 µM.
For CC1(C#N)N(C(=O)c2ccccc2)c2ccccc2N1C(=O)c1ccccc1, the GI50 [2] was 79.7 µM, the GI50 [3] was 91.8 µM and the GI50 [8] was 22.9 µM. For the same compound, the TGI [8] was 71.9 µM, the GI50 [10] was 65.3 µM and the GI50 [12] was 52 µM. The GI50 [15] was 62.9 µM, the GI50 [16] was 33 µM and the GI50 [20] was 79.7 µM. For the same compound, the GI50 [21] was 45.1 µM, the GI50 [22] was 66.4 µM and the GI50 [23] was 38.7 µM. It also gave a GI50 [24] of 57.7 µM, a GI50 [26] of 75.9 µM and a GI50 [28] of 23.9 µM. It also gave a TGI [28] of 77.9 µM, a GI50 [30] of 81.8 µM and a GI50 [31] of 46.5 µM. The GI50 [33] was 33.6 µM, the GI50 [35] was 29.3 µM and the TGI [35] was 98.4 µM. It also gave a GI50 [59] of 79.4 µM, a GI50 [39] of 64.4 µM and a GI50 [40] of 37.2 µM. The GI50 [41] was 35.4 µM, the GI50 [42] was 15.3 µM and the GI50 [43] was 45.4 µM. The GI50 [44] was 49.4 µM, the GI50 [45] was 39.8 µM and the GI50 [53] was 72.9 µM. It also gave a GI50 [54] of 65 µM, a GI50 [55] of 44.6 µM and a GI50 [56] of 86.4 µM. The GI50 [58] was 69.9 µM.
